Measured values reported in patent US20220394979A1 (priority 2021, published 2022).
Like-named read-outs stand apart in the source and are kept apart here.

Experiments:
[1] = system: bacteria; conditions: quat 0.5% (5 g/L), cited from earlier work
[2] = system: virus; conditions: quat 0.5% (5 g/L), cited from earlier work
[3] = system: parasites and protozoan oocysts; conditions: 20,000 mg/L ammonium phosphate, NH3 30 mg/L at pH 7.4, 300 mg/L at pH 8.4, cited from earlier work
[4] = recommended storage conditions; cited from earlier work
[5] = system: C. perfringes; conditions: Ammonia at 0.1% w/w

Molecule: C12-C14-alkyl (ethylbenzyl) dimethyl ammonium chloride [Quaternary Amines]
- Degree of Inactivation: log reduction of bacteria [1]: 9 log reduction of bacteria
- Degree of Inactivation: log reduction of bacteria ([1]; listed as Quats): 9 log reduction of
- Degree of Inactivation: log reduction of virus [2]: 6 log reduction, of virus
- Degree of Inactivation: log reduction of virus ([2]; listed as Quats): 6 log reduction. of

Molecule: N.N.O=P(O)(O)O [Ammonium Phosphate/Nonionized Ammonia, Ammonium Phosphate Dibasic]
- Degree of Inactivation: log reduction of parasites and protozoan oocysts [3]: 6 log reduction of parasites and
- Degree of Inactivation: log reduction of parasites and protozoan oocysts ([3]; listed as Ammonium Phosphate): 6 log reduction of
- Storage stability [4]: Stable under recommended storage

Molecule: N [Ammonia]
- level of C. perfringes after treatment ([5]; raw biosolids at 1×10^7): less than 2×10^2
- log reduction of spore forming bacteria and parasites ([5]; raw biosolids): five log reductions
